In patent publication US20040110787A1, “Heteroaryl-ethanolamine derivatives as antiviral agents” (priority 2002, published 2004):
Where two headings read alike, the source gives them in different places.

Columns and labels:
[1] = target: T1, HCMV polymerase (Human cytomegalovirus, UniProt P08546); assay: HCMV polymerase scintillation proximity assay (SPA); assay type: biochemical
T1 construct: made in house; host or cells: recombinant baculovirus-infected SF-9 cells
Procedure: The HCMV polymerase assay is performed using a scintillation proximity assay (SPA) as described in several references, such as N. D. Cook, et al., Pharmaceutical Manufacturing International, pages 49-53 (1992); K Takeuchi, Laboratory Practice, September issue (1992); U.S. Pat. No. 4,568,649 (1986); which are incorporated by reference herein. Reactions are performed in 96-well plates. The assay is conducted in 100 μl volume with 5.4 mM HEPES (pH 7.5), 11.7 mM KCl, 4.5 mM MgCl2, 0.36 mg/ml BSA, and 90 nM ^3H-dTTP. Assays are run with and without CHAPS, (3-[(3-Cholamidopropyl)-dimethylammonio]-1-propane-sulfonate) at a final concentration of 2 mM. HCMV polymerase is diluted in enzyme dilution buffer containing 50% glycerol, 250 mM NaCl, 10 mM HEPES (pH 7.5), 100 μg/ml BSA, and 0.01% sodium azide. The HCMV polymerase, which is expressed in, recombinant baculovirus-infected SF-9 cells and purified according to literature procedures, is added at 10% (or 10 μl) of the final reaction volume, i.e., 100 μl. Compounds are diluted in 50% DMSO and 10 μl are added to each well. Control wells contain an equivalent concentration of DMSO. Unless noted otherwise, reactions are initiated via the addition of 6 nM biotinylated poly(dA)-oligo(dT) template/primer to reaction mixtures containing the enzyme, substrate, and compounds of interest. Plates are incubated in a 25° C. or 37° C. H2O bath and terminated via the addition of 40 μl/reaction of 0.5 M EDTA (pH 8) per well. Reactions are terminated within the time-frame during which substrate incorporation is linear and varied depending upon the enzyme and conditions used, i.e., 30 min. for HCMV polymerase. Ten (10) 10 μL of streptavidin-SPA beads (20 mg/ml in PBS/10% glycerol) are added following termination of the reaction. Plates are incubated 10 min. at 37° C., then equilibrated to room temperature, and counted on a Packard Topcount. Linear regressions are performed and IC50's are calculated using computer software.
A modified version of the above HCMV polymerase assay is performed as described above, but with the following changes: Compounds are diluted in 100% DMSO until final dilution into assay buffer. In the previous assay, compounds are diluted in 50% DMSO. 4.5 mM Dithiothreitol (DTT) is added to the polymerase buffer.
All results are listed as Polymerase IC50 ([…]) values. In Table 1, the term “n.d.” refers to activity data not determined.

[2] = target: HSV polymerase (Human herpesvirus 1, UniProt P04293); assay: HSV polymerase assay (Table 1); assay type: biochemical
Chain of HSV polymerase (P04293 whole entry): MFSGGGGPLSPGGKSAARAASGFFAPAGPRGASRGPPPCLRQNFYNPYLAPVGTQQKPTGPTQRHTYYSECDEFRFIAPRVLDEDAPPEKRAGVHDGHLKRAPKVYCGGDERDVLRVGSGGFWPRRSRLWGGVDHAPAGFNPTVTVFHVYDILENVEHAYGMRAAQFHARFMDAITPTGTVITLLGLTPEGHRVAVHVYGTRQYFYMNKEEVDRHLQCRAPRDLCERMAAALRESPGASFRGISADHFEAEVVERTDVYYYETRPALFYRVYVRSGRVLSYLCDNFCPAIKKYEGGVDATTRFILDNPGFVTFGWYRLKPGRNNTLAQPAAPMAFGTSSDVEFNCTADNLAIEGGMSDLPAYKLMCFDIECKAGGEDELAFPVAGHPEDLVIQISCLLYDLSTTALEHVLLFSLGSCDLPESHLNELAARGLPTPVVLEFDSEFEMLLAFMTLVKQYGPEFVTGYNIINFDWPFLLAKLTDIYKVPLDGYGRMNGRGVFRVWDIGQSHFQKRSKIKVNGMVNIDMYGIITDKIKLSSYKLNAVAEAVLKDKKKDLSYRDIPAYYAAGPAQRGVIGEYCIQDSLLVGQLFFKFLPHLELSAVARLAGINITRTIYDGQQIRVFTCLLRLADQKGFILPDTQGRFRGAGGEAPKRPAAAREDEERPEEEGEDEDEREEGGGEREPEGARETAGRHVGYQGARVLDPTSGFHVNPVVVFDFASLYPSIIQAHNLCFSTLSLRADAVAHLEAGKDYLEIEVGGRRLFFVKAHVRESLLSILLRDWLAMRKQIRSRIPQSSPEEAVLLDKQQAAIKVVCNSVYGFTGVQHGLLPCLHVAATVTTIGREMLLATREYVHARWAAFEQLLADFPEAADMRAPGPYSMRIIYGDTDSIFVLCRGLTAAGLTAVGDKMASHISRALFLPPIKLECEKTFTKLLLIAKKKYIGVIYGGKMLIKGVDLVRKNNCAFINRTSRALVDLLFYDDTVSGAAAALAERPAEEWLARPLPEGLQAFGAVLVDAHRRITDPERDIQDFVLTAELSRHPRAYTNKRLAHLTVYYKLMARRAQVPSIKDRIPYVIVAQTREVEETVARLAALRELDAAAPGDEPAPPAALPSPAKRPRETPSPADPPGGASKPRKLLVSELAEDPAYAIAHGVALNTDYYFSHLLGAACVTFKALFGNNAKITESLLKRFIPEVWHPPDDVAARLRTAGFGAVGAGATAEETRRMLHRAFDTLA

[3] = target: VZV polymerase (Varicella-zoster virus, UniProt P09252); assay: VZV polymerase assay (Table 1); assay type: biochemical
Chain of VZV polymerase (P09252 whole entry): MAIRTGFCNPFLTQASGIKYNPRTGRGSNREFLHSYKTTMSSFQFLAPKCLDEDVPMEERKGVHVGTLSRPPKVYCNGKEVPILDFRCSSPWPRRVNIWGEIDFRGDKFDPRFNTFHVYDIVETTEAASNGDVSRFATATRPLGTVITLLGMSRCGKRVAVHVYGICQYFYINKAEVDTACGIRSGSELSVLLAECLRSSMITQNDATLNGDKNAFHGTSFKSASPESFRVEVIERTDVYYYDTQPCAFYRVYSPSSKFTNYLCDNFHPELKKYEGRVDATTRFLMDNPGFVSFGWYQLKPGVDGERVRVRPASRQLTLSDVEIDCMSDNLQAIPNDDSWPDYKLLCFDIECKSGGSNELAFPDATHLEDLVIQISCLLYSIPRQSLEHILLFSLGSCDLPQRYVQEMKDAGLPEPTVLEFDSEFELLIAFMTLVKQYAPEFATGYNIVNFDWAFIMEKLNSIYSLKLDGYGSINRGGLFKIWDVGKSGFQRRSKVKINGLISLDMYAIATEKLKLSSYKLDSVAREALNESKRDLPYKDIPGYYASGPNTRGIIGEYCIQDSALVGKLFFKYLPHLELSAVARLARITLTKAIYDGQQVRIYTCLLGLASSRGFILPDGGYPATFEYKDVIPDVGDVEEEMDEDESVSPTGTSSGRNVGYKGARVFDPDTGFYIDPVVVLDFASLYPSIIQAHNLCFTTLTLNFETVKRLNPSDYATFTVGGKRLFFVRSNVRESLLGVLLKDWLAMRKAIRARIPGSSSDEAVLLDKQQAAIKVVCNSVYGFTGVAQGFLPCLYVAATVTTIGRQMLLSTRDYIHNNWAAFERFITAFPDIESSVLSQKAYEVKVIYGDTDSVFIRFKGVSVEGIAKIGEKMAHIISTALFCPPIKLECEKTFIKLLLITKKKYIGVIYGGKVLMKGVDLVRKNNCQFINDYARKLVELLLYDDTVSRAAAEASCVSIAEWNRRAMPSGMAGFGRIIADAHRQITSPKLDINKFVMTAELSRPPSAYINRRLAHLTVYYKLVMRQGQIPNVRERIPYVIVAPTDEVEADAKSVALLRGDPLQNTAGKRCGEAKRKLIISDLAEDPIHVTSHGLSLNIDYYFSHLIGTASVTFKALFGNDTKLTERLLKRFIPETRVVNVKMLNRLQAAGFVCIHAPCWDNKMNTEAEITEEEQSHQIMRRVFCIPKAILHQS

[4] = HCMV polymerase, SPA, read-out: Polymerase IC50 HCMV

T1 sequence (P08546 whole entry): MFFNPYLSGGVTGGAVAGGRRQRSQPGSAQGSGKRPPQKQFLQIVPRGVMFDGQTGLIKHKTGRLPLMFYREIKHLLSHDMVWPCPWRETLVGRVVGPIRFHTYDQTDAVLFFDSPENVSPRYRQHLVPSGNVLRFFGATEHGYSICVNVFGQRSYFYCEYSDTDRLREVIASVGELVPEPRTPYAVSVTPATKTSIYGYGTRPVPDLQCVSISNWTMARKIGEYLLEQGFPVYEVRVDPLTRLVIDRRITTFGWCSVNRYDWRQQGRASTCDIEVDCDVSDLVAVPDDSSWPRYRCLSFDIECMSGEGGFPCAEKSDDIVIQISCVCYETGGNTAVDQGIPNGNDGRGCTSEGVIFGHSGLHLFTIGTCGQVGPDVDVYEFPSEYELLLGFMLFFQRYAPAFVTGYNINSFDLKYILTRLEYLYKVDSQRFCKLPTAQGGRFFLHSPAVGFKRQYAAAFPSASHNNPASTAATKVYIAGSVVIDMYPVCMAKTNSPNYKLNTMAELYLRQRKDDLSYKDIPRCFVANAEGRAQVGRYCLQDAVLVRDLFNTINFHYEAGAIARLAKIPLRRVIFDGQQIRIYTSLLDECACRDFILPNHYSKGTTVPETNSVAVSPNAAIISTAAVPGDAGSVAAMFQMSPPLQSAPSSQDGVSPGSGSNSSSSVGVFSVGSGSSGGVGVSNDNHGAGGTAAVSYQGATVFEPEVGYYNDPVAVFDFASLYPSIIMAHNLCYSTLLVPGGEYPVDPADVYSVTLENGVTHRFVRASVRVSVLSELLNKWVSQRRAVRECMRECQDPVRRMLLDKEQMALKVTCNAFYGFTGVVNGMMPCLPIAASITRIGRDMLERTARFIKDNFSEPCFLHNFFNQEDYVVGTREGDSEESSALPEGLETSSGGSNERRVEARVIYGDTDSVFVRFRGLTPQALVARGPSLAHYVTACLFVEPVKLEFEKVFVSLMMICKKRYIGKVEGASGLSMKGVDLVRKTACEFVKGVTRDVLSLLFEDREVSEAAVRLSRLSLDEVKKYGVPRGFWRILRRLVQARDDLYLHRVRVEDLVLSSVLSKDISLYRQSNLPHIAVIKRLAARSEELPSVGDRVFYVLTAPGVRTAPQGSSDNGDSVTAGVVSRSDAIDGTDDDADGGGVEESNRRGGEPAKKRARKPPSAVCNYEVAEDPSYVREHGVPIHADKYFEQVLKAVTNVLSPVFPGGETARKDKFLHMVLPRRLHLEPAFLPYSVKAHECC

| Compound | IC50 [1] | IC50 [1, 4] | melting point | IC50 [2] | IC50 [3] |
| --- | --- | --- | --- | --- | --- |
| CN(Cc1cc2c(=O)c(C(=O)NCc3ccc(Cl)cc3)cn(CCCO)c2s1)C[C@@H](O)c1ccccn1 [Example 18, N-(4-Chlorobenzyl)-7-(3-hydroxypropyl)-2-((((2R)-2-hydroxy-2-pyridin-2-ylethyl)(methyl)amino)methyl)-4-oxo-4,7-dihydrothieno[2,3-b]pyridine-5-carboxamide] | 1300 nM | – | – | – | – |
| CN(Cc1cc2c(=O)c(C(=O)NCc3ccc(Cl)cc3)cn(CCO)c2s1)C[C@@H](O)c1ccccn1 [Example 20, N-(4-Chlorobenzyl)-7-(2-hydroxyethyl)-2-((((2R)-2-hydroxy-2-pyridin-2-ylethyl)(methyl)amino)methyl)-4-oxo-4,7-dihydrothieno[2,3-b]pyridine-5-carboxamide] | – | 1160 nM | – | – | – |
| CN(Cc1cc2c(=O)c(C(=O)NCc3ccc(Cl)cc3)cn(C)c2s1)CC(O)c1ccncc1 (racemic) [Example 3, rac-N-(4-Chlorobenzyl)-2-(((2-hydroxy-2-pyridin-4-ylethyl)(methyl)amino)methyl)-7-methyl-4-oxo-4,7-dihydrothieno[2,3-b]pyridine-5-carboxamide] | – | 200 nM | 185 to 188 °C | 470 nM | 220 nM |
| CCn1cc(C(=O)NCc2ccc(Cl)cc2)c(=O)c2cc(CN(C)CC(O)c3cnccn3)sc21 (racemic) [Example 13, rac-N-(4-Chlorobenzyl)-7-ethyl-2-(((2-hydroxy-2-pyrazin-2-ylethyl)(methyl)amino)methyl)-4-oxo-4,7-dihydrothieno[2,3-b]pyridine-5-carboxamide] | – | 370 nM | 130 to 133 °C | 550 nM | 170 nM |
| CN(Cc1cc2c(=O)c(C(=O)NCc3ccc(Br)cc3)cn(C)c2s1)C[C@@H](O)c1ccccn1 [Example 25, N(4-Bromobenzyl)-2-((((2R)-2-hydroxy-2-pyridin-2-ylethyl)(methyl)amino)methyl)-7-methyl-4-oxo-4,7-dihydrothieno[2,3-b]pyridine-5-carboxamide] | – | 150 nM | 151 to 153 °C | – | – |
| CN(Cc1cc2c(=O)c(C(=O)NCc3ccc(Cl)cc3)cn(CCCO)c2s1)CC(O)c1ncccn1 (racemic) [Example 19, rac-N-(4-Chlorobenzyl)-7-(3-hydroxypropyl)-2-(((2-hydroxy-2-pyrimidin-2-ylethyl)(methyl)amino)methyl)-4-oxo-4,7-dihydrothieno[2,3-b]pyridine-5-carboxamide] | 1120 nM | – | – | – | – |
| CN(Cc1cc2c(=O)c(C(=O)NCc3ccc(Cl)cc3)cn(C)c2s1)C[C@@H](O)c1ncccn1 [Example 9] | – | 50 nM | – | 130 nM | 30 nM |
| CN(Cc1cc2c(=O)c(C(=O)NCc3ccc(Cl)cc3)cn(C)c2s1)CC(O)c1cccnn1 (stereo not drawn) [Example 12] | – | 310 nM | – | 840 nM | 230 nM |
| CCCn1cc(C(=O)NCc2ccc(Cl)cc2)c(=O)c2cc(CN(C)CC(O)c3ccccn3)sc21 (racemic) [Example 15, rac-N-(4-Chlorobenzyl)-7-propyl-2-(((2-hydroxy-2-pyridin-2-ylethyl)(methyl)amino)methyl)-4-oxo-4,7-dihydrothieno[2,3-b]pyridine-5-carboxamide] | – | 1070 nM | – | – | – |
| CN(Cc1cc2c(=O)c(C(=O)NCc3ccc(Cl)cc3)cn(C)c2s1)CC(O)c1ccccn1 (racemic) [Example 4, rac-N-(4-Chlorobenzyl)-2-(((2-hydroxy-2-pyridin-2-ylethyl)(methyl)amino)methyl)-7-methyl-4-oxo-4,7-dihydrothieno[2,3-b]pyridine-5-carboxamide] | – | 90 nM | 145 to 147 °C | 100 nM | 30 nM |
| CN(Cc1cc2c(=O)c(C(=O)NCc3ccc(Cl)cc3)cn(C)c2s1)CC(O)c1cnccn1 (racemic) [Example 10, rac-N-(4-Chlorobenzyl)-2-(((2-hydroxy-2-pyrazin-2-ylethyl)(methyl)amino)methyl)-7-methyl-4-oxo-4,7-dihydrothieno[2,3-b]pyridine-5-carboxamide] | – | 110 nM | – | 100 nM | 50 nM |
| CN(Cc1cc2c(=O)c(C(=O)NCc3ccc(Cl)cc3)cn(C)c2s1)C[C@@H](O)c1cnccn1 [Example 11, N-(4-Chlorobenzyl)-2-((((2R)-2-hydroxy-2-pyrazin-2-ylethyl)(methyl)amino)methyl)-7-methyl-4-oxo-4,7-dihydrothieno[2,3-b]pyridine-5-carboxamide] | – | 40 nM | – | 80 nM | 20 nM |
| rac-N-(4-Chlorobenzyl)-7-ethyl-2-(((2-hydroxy-2-pyrimidin-2-ylethyl)(methylamino)methyl)-4-oxo-4,7-dihydrothieno[2,3-b]pyridine-5-carboxamide [Example 14] | – | 1200 nM | – | – | – |
| CCCn1cc(C(=O)NCc2ccc(Cl)cc2)c(=O)c2cc(CN(C)CC(O)c3cnccn3)sc21 (racemic) [Example 16, rac-N-(4-Chlorobenzyl)-2-(((2-hydroxy-2-pyrazin-2-ylethyl)(methyl)amino)methyl)-4-oxo-7-propyl-4,7-dihydrothieno[2,3-b]pyridine-5-carboxamide] | – | 310 nM | – | 1090 nM | 210 nM |
| Cc1cccc(C(O)CN(C)Cc2cc3c(=O)c(C(=O)NCc4ccc(Cl)cc4)cn(C)c3s2)n1 (racemic) [Example 6, rac-N-(4-Chlorobenzyl)-2-(((2-hydroxy-2-(6-methylpyridin-2-yl)ethyl)(methyl)amino)methyl)-7-methyl-4-oxo-4,7-dihydrothieno[2,3-b]pyridine-5-carboxamide] | – | 620 nM | 158 to 162 °C | – | – |
| CN(Cc1cc2c(=O)c(C(=O)NCc3ccc(Cl)cc3)cn(CC(O)CO)c2s1)C[C@@H](O)c1ccccn1 (stereo partly drawn) [Example 17, N-(4-Chlorobenzyl)-7-(2,3-dihydroxypropyl)-2-((((2R)-2-hydroxy-2-pyridin-2-ylethyl)(methyl)amino)methyl)-4-oxo-4,7-dihydrothieno[2,3-b]pyridine-5-carboxamide] | – | 2190 nM | – | – | – |
| COCCn1cc(C(=O)NCc2ccc(Cl)cc2)c(=O)c2cc(CN(C)CC(O)c3cnccn3)sc21 (racemic) [Example 21, rac-N-(4-Chlorobenzyl)-2-(((2-hydroxy-2-pyrazin-2-ylethyl)(methyl)amino)methyl)-7-(2-methoxyethyl)-4-oxo-4,7-dihydrothieno[2,3-b]pyridine-5-carboxamide] | – | 1030 nM | 122 to 123 °C | – | – |
| CN(Cc1cc2c(=O)c(C(=O)NCc3ccc(C#N)cc3)cn(C)c2s1)C[C@@H](O)c1ccccn1 [Example 24, N(4-Cyanobenzyl)-2-((((2R)-2-hydroxy-2-pyridin-2-ylethyl)(methyl)amino)methyl)-7-methyl-4-oxo-4,7-dihydrothieno[2,3-b]pyridine-5-carboxamide] | – | 230 nM | 167 to 169 °C | – | – |
| CN(Cc1cc2c(=O)c(C(=O)NCc3ccc(F)cc3)cn(C)c2s1)C[C@@H](O)c1ccccn1 [Example 23, N-(4-Fluorobenzyl)-2-((((2R)-2-hydroxy-2-pyridin-2-ylethyl)(methyl)amino)methyl)-7-methyl-4-oxo-4,7-dihydrothieno[2,3-b]pyridine-5-carboxamide] | – | 280 nM | – | 490 nM | 110 nM |
| CN(Cc1cc2c(=O)c(C(=O)NCc3ccc(Cl)cc3)cn(CCOCCO)c2s1)C[C@@H](O)c1cnccn1 [Example 22] | – | 580 nM | – | – | – |
